Marks after values point to notes of the source that are not given here.
Tests used:
Format in all cases: physicochemical
[1] = Ketone hydration to diol equilibrium constant by room temperature NMR (Technique 1); conditions: for KH,app at 20 ± ° C. (1H) / KH,app at 20 ± ° C. (19F): d6-DMSO/H2O (1/1, mol/mol); for KH,app at 20 ± ° C. (1H): 1H NMR; for KH,app at 20 ± ° C. (19F): 19F NMR
Protocol: (§1) Ketone hydration to diol equilibrium constants (KH) and thermodynamic parameters for Example compounds were measured by NMR by adapting techniques from the literature [Bushman et al., Berichte der Bunsengesellschaft für physikalische Chemie, 84: 41-44 (1980); Greenzaid et al., J. Amer. Chem. Soc. 89: 749-756 (1967); and R. Stewart and J. D. Van Dyke, Can. J. Chem. 50: 1992-1999 (1972)] using either Technique 1 (IIa) or Technique 2 (IIb), further deviations to the general methods are noted with those Examples. D2O concentration was minimized to reduce the isotope effect (˜20% according to Bushman 1980).
(§2) The conversion from ketone to diol results in an upfield change in nuclear chemical shift. This change in nuclear resonance frequency can then be used to distinguish between ketone and diol peaks in the NMR spectrum. Since area integration of NMR peaks is directly related to the number of atoms resonating at that frequency, the area ratio between diol and ketone peaks can be used to calculate equilibrium constants. Assuming water is in high excess relative to the ketone its activity can be treated as unity resulting in the KH being only dependent on the relative peak integration ratio of diol/ketone:
In many Examples, only a single resonance for each species was available for to determine the diol/ketone ratio. Where available equilibrium constants were calculated by averaging multiple resonance together normalized by number of hydrogens associated with each of them.
Due to the insolubility of some ketones in water, DMSO was used as a co-solvent at 50% by mole. Equilibrium constants obtained with DMSO as a co-solvent are only apparent constants (KH,app) since this alters the activities of the compounds relative to a pure water solvent. […] J. Chem. 50: 1992-1999 (1972)].
In a volumetric flask, ketones were dissolved to a concentration of approximately 0.5 M in 50 mol % d^6-DMSO/H2O. Solutions were left to equilibrate overnight then transferred to an NMR tube for analysis. Solutions were measured by ^1H NMR at (400 MHz) or ^19F NMR (376 MHz) at ambient temperature (20±1° C.).
(§3) This should not affect the measured hydration equilibrium greatly though since water is in such high excess. From Examples 2-2 to 2-5, the tunability of the hydration constant by altering the substituent on the benzyl ring is readily apparent.

[2] = Solubility in water (remark on sample preparation)
Source text: as §3

[3] = Ketone hydration equilibrium and thermodynamic parameters by variable temperature NMR (Technique 2), van't Hoff fit; conditions: for ΔG ° / ΔH ° / −TΔS °: van't Hoff fit; for KH at 25° C. (KH,app): apparent constant
Protocol: as §1, §2
For a select set of compounds a series of variable temperature NMR measurements (IIB: Technique 2) were made to extract reaction standard enthalpy)(ΔH°) and entropy(ΔS°) contributions to free energy of hydration)(ΔG°). Equilibrium constants versus temperature data were fit to the van't Hoff equation to determine ΔH°, ΔS°, and ΔG°; changes in heat capacity were assumed to be negligible:
In a volumetric flask (1.00, 2.00, or 10.00 mL) ketones were dissolved to a concentration of approximately 0.5 M in solvents composed of either D2O/H2O (5/95, v/v; method 2a) or d^6-DMSO/DMSO/H2O (10/40/50 by moles; method 2b). The solution was left to equilibrate at room temperature overnight then transferred to a standard NMR tube.
A series of 1H NMR (400 MHz)measurements were made with variable temperature control (0.1° C. precision) ranging from 25-65° C., typically in 10° C. increments. At each increment once the temperature had stabilized to within ±0.2° C. of the goal, samples were equilibrated for 5 minutes prior to the measurement.
The van't Hoff equation was then fit to a plot of KH vs. temperature; energy standard deviation were calculated from the fit of the equation to the raw data.
Examples 2-6 and 2-11 were prepared using variations to the standard procedure. Example 2-6 was prepared with a concentration of 50 mM, so that it was soluble in water. For Example 2-11, a small amount of enol was also observed (about 0.08 relative to ketone). To account for this, we calculated KH for Example 2-11 as diol/(ketone+enol), assuming enol formation from the ketone is reversible.

Compound | KH,app at 20 ± ° C. (19F) [1] | KH at 25° C. ([3]; D2O/H2O (5/95, v/v)) | ΔG ° ([3]; D2O/H2O (5/95, v/v)) [kcal/mol] | ΔH ° ([3]; D2O/H2O (5/95, v/v)) [kcal/mol] | −TΔS ° ([3]; D2O/H2O (5/95, v/v)) [kcal/mol] | further results
CC(F)(F)C(=O)c1ccccc1 [Example 2-2, 2,2-difluoro-1-phenyl-1-propanone] | 3.3 |  |  |  |  | KH,app at 20 ± ° C. (1H) [1]: 2.8
CC(=O)C(C)(C)[N+](=O)[O-] [Example 2-1, 3-methyl-3-nitrobutan-2-one] |  |  |  |  |  | solubility in water [2]: low solubility in water; KH,app at 20 ± ° C. ([1]; D2O/H2O (5/95, v/v), 23 mM): 0.22
O=C(CF)CF [Example 2-9] |  | 27 | -1.94 ± 0.24 | -7.5 ± 0.17 | 5.57 ± 0.17 | 
O=C1CCCCC1F (stereo not drawn) [Example 2-8] |  |  |  |  |  | KH at 25° C. (KH,app) ([3]; DMSO/H2O (1/1, mol/mol)): 0.52^a; ΔG ° ([3]; DMSO/H2O (1/1, mol/mol)): 0.96 ± 0.17 kcal/mol; ΔH ° ([3]; DMSO/H2O (1/1, mol/mol)): -5.35 ± 0.096 kcal/mol; −TΔS ° ([3]; DMSO/H2O (1/1, mol/mol)): 6.31 ± 0.14 kcal/mol
O=C(c1ccc(F)cc1)C(F)(F)F [Example 2-4] | 500 (^19F) |  |  |  |  | 
CC(=O)C(C)=O [Example 2-10] |  | 2.5 | -0.526 ± 0.359 | -5.98 ± 0.359 | 5.45 ± 0.359 | 
CCC(=O)C(C)=O [Example 2-11] |  | 1.5 | -0.263 ± 0.12 | -5.47 ± 0.12 | 5.21 ± 0.12 | KH at 25° C. (KH,app) ([3]; DMSO/H2O (1/1, mol/mol)): 0.45^a; ΔG ° ([3]; DMSO/H2O (1/1, mol/mol)): 0.48 kcal/mol; ΔH ° ([3]; DMSO/H2O (1/1, mol/mol)): -5.74 kcal/mol; −TΔS ° ([3]; DMSO/H2O (1/1, mol/mol)): 6.21 kcal/mol; enol observed relative to ketone ([3]; NMR): about 0.08
CC(=O)C(C)(C)C#N [Example 2-6] |  | 0.063 | 1.63 ± 0.48 | -5.86 ± 0.359 | 7.48 ± 0.335 | 
COc1ccc(C(=O)C(F)(F)F)cc1 [Example 2-3] | 23 |  |  |  |  | KH,app at 20 ± ° C. (1H) [1]: 21
O=C(c1ccccc1)C(F)(F)F [Example 2-5] | 370 (^19F) |  |  |  |  | 
